According to the supplement of paper PMC6045584:
± gives the standard deviation of the averaged measurements.

Assays:
[1] = compound: Cc1ccc(NC(=O)c2ccc(CN3CCN(C)CC3)cc2)cc1Nc1nccc(-c2cccnc2)n1 [IMATINIB]; assay: surviving fraction relative to DMSO-only wells; higher = less growth inhibition; details: exposure time: 5 days
Procedure, shortened: (§1)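 In 384-well plates, 250–500 log-phase tumour cells per well were given 24 hours before five days of continuous exposure to inhibitors at 0.5, 1, 5, 10, 50, 100, 500 and 1000 nM. Surviving fraction is luminescence from CellTiter-Glo, normalised to the median of wells containing DMSO alone. Reading took place after 10 minutes at room temperature.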

[2] = compound: COc1cc2nccc(Oc3ccc(NC(=O)C4(C(=O)Nc5ccc(F)cc5)CC4)cc3)c2cc1OC [CABOZANTINIB]; assay: as above; details: exposure time: 5 days
Procedure, shortened: as §1

Row | Test System | surviving fraction ([1]; 1 nM) | surviving fraction ([1]; 5 nM) | surviving fraction ([1]; 10 nM) | surviving fraction ([1]; 50 nM) | surviving fraction ([1]; 100 nM) | surviving fraction ([1]; 500 nM) | surviving fraction ([1]; 1000 nM) | surviving fraction ([2]; 0.5 nM) | surviving fraction ([2]; 1 nM) | surviving fraction ([2]; 5 nM) | surviving fraction ([2]; 10 nM) | surviving fraction ([2]; 50 nM) | surviving fraction ([2]; 100 nM) | surviving fraction ([2]; 500 nM) | surviving fraction ([2]; 1000 nM) | surviving fraction ([1]; 0.5 nM)
1 | MDAMB453 BREAST | 1.1 ± 0.086 | 1.13 ± 0.051 | 1.12 ± 0.1 | 1.18 ± 0.034 | 1.06 ± 0.034 | 1.082 ± 0.0067 | 1.04 ± 0.011 | 1.04 ± 0.049 | 1.01 ± 0.034 | 1.09 ± 0.051 | 1.03 ± 0.052 | 1.01 ± 0.092 | 1.06 ± 0.014 | 1.06 ± 0.062 | 1.02 ± 0.041 | –
2 | MDAMB436 BREAST | 0.984 ± 0.11 | 0.985 ± 0.079 | 0.998 ± 0.093 | 1.04 ± 0.14 | – | 1.1 ± 0.12 | – | 0.95 ± 0.067 | 0.94 ± 0.04 | 1 ± 0.17 | 0.973 ± 0.029 | 1.04 ± 0.096 | 0.951 ± 0.097 | 1.04 ± 0.058 | 1.02 ± 0.11 | 1.01 ± 0.078
3 | SIHA CERVIX | 1.1 ± 0.054 | – | 1.09 ± 0.065 | 1.15 ± 0.073 | 1.17 ± 0.054 | 1.12 ± 0.076 | – | 0.857 ± 0.073 | 0.835 ± 0.051 | 0.979 ± 0.02 | 0.918 ± 0.017 | 0.988 ± 0.024 | 0.929 ± 0.038 | 0.737 ± 0.032 | 0.68 ± 0.033 | 1.1 ± 0.04
4 | 143B BONE | 1.1 ± 0.03 | – | 1.1 ± 0.013 | 1.14 ± 0.043 | – | 1.15 ± 0.1 | 1.14 ± 0.11 | 1.07 ± 0.08 | 1.03 ± 0.023 | 1.02 ± 0.013 | 1.05 ± 0.02 | 1.01 ± 0.038 | 1.09 ± 0.059 | 1.048 ± 0.0092 | 1.06 ± 0.031 | 1.07 ± 0.022
5 | U2OS BONE | 1.02 ± 0.033 | 1.07 ± 0.028 | 1.05 ± 0.028 | 1.09 ± 0.026 | 1.113 ± 0.0058 | 1.15 ± 0.027 | 1.15 ± 0.018 | 1.015 ± 0.0081 | 1.02 ± 0.028 | 1.03 ± 0.022 | 1.003 ± 0.0091 | 1.03 ± 0.046 | 1.02 ± 0.015 | 0.932 ± 0.018 | 0.914 ± 0.02 | 1.06 ± 0.021
6 | COLO320DM LARGE INTESTINE | 1.14 ± 0.052 | 1.08 ± 0.16 | 1.12 ± 0.11 | 1.12 ± 0.12 | 1.14 ± 0.098 | 1.15 ± 0.12 | 1.16 ± 0.039 | 1.08 ± 0.12 | 1.07 ± 0.13 | 1.04 ± 0.13 | 1.11 ± 0.08 | 1.18 ± 0.069 | 1.23 ± 0.093 | 1.16 ± 0.049 | 1.04 ± 0.099 | 1.1 ± 0.17
7 | VCAP PROSTATE | 0.949 ± 0.15 | – | 1.17 ± 0.035 | 1.22 ± 0.12 | 1.12 ± 0.13 | – | 1.05 ± 0.086 | 0.921 ± 0.16 | 1.01 ± 0.046 | 1.05 ± 0.037 | 0.996 ± 0.07 | 1.06 ± 0.043 | 1.026 ± 0.004 | 0.992 ± 0.065 | 0.871 ± 0.056 | 1.11 ± 0.19
8 | YAMATO SYNOVIAL | 1.19 ± 0.14 | 1.28 ± 0.14 | 1.26 ± 0.078 | 1.23 ± 0.054 | 1.27 ± 0.15 | 1.1 ± 0.11 | 1.05 ± 0.073 | 1.19 ± 0.048 | 1.16 ± 0.076 | 1.11 ± 0.04 | 1.01 ± 0.028 | 0.826 ± 0.044 | 0.678 ± 0.018 | 0.374 ± 0.0056 | 0.373 ± 0.02 | 1.29 ± 0.055
9 | HCC202 BREAST | 0.908 ± 0.013 | 1.28 ± 0.18 | – | 1.11 ± 0.34 | 1.32 ± 0.45 | 1.3 ± 0.15 | 1.39 ± 0.35 | 1.12 ± 0.14 | 1.11 ± 0.079 | 1.2 ± 0.031 | 1.15 ± 0.17 | 1.1 ± 0.28 | 1.13 ± 0.065 | 1.31 ± 0.12 | 1.09 ± 0.098 | 1.44 ± 0.69
10 | SCC003 HEADNECK | 1.1 ± 0.037 | 1.15 ± 0.036 | – | 1.09 ± 0.033 | 1.18 ± 0.045 | 1.13 ± 0.062 | 1.12 ± 0.075 | 0.921 ± 0.063 | 0.878 ± 0.055 | 0.97 ± 0.02 | 0.965 ± 0.047 | 1.08 ± 0.011 | 1.04 ± 0.029 | 0.98 ± 0.03 | 0.936 ± 0.1 | 1.1 ± 0.07
11 | KPD BONE | 0.983 ± 0.068 | 1.11 ± 0.043 | 1.1 ± 0.082 | 1.16 ± 0.067 | 1.05 ± 0.097 | – | 0.99 ± 0.023 | 0.914 ± 0.031 | 0.985 ± 0.02 | 1.1 ± 0.045 | 1.04 ± 0.028 | 1.05 ± 0.036 | 1.03 ± 0.045 | 0.997 ± 0.068 | 0.956 ± 0.047 | 1.077 ± 0.008
12 | HELA CERVIX | 1.04 ± 0.039 | 1.03 ± 0.056 | – | – | 1.1 ± 0.016 | 1.14 ± 0.086 | 1.09 ± 0.043 | 1.01 ± 0.028 | 0.98 ± 0.021 | 0.999 ± 0.033 | 0.955 ± 0.042 | 1.08 ± 0.036 | 1.06 ± 0.05 | 1.11 ± 0.088 | 1.1 ± 0.028 | 1.13 ± 0.034
13 | C33A CERVIX | 0.999 ± 0.073 | – | 1.09 ± 0.1 | 1.15 ± 0.08 | – | 1.05 ± 0.022 | 1.08 ± 0.045 | 0.753 ± 0.12 | 0.696 ± 0.036 | 0.941 ± 0.021 | 0.885 ± 0.076 | 0.862 ± 0.071 | 0.919 ± 0.019 | 0.702 ± 0.0072 | 0.676 ± 0.068 | 0.921 ± 0.058
14 | HU09 BONE | 1.01 ± 0.034 | 1.16 ± 0.038 | – | 0.878 ± 0.084 | 0.89 ± 0.0044 | 0.554 ± 0.027 | 0.483 ± 0.026 | 0.945 ± 0.084 | 0.999 ± 0.11 | 0.978 ± 0.055 | 1.02 ± 0.13 | 0.885 ± 0.096 | 0.638 ± 0.06 | 0.452 ± 0.043 | 0.338 ± 0.034 | 1.05 ± 0.19
15 | SCC47 HEADNECK | 1.2 ± 0.065 | 1.18 ± 0.072 | 1.19 ± 0.013 | 1.19 ± 0.025 | 1.25 ± 0.1 | 1.22 ± 0.11 | 1.21 ± 0.028 | 0.891 ± 0.022 | 0.894 ± 0.019 | 1.06 ± 0.062 | 1.03 ± 0.16 | 1.05 ± 0.14 | 1.08 ± 0.069 | 0.844 ± 0.025 | 0.922 ± 0.041 | 1.12 ± 0.017
16 | SUM149.B1*.S BREAST | 1.11 ± 0.036 | 1.15 ± 0.04 | 1.19 ± 0.035 | 1.19 ± 0.039 | 1.15 ± 0.038 | 1.19 ± 0.051 | 1.18 ± 0.061 | 1.03 ± 0.07 | 1.02 ± 0.034 | 0.998 ± 0.046 | 1.04 ± 0.025 | 1.039 ± 0.0013 | 0.979 ± 0.037 | 0.992 ± 0.029 | 0.967 ± 0.021 | 1.12 ± 0.041
17 | LM7 BONE | – | – | 1.11 ± 0.082 | 1.19 ± 0.074 | 1.17 ± 0.063 | 1.04 ± 0.016 | 0.959 ± 0.11 | 1.03 ± 0.091 | 0.998 ± 0.039 | 1.07 ± 0.035 | 1.04 ± 0.053 | 1.06 ± 0.11 | 1.09 ± 0.019 | 0.932 ± 0.015 | 0.889 ± 0.036 | –
